Laboratory results from PubChem BioAssay (NCI).
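Five compound concentrations were applied to cells in 96-well plates for 48 hours; endpoints were derived by simple linear interpolation of the resulting dose-response curve. GI50: concentration for 50% inhibition of growth. TGI denotes the concentration required for complete inhibition of growth.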

Columns and labels:
Assay in all cases: growth of human tumour cells (NCI), 48 h
[1] = system: DU-145 prostate
[2] = system: IGROV1 ovarian
[3] = system: M14 melanoma
[4] = system: MDA-MB-231 breast
[5] = system: SF-268 CNS
[6] = system: SK-MEL-5 melanoma
[7] = system: SNB-75 CNS
[8] = system: SW-620 colon
[9] = system: UACC-257 melanoma
[10] = system: UACC-62 melanoma

Compound	GI50 [1] [µM]	TGI [1] [µM]	GI50 [2] [µM]	TGI [2] [µM]	GI50 [3] [µM]	TGI [3] [µM]	GI50 [4] [µM]	TGI [4] [µM]	GI50 [5] [µM]	TGI [5] [µM]	GI50 [6] [µM]	TGI [6] [µM]	GI50 [7] [µM]	TGI [7] [µM]	GI50 [8] [µM]	TGI [8] [µM]	GI50 [9] [µM]	TGI [9] [µM]	GI50 [10] [µM]	TGI [10] [µM]
COc1cc(/C=C2\CCC/C(=C\c3cc(CN4CCCC4)c(O)c(OC)c3)C2=O)cc(CN2CCCC2)c1O	4.63	15.4	3.24	13.3	2.9	8.63	3.81	12.8	4.53	16.3	4.12	15.5	5.02	47.9	3.62	12.9	5.29	19.6	3.45	12.9
CCOC(=O)C1=C(C)NC2SC(=O)/C(=C\c3cccc(Cl)c3)N2C1c1ccccc1 (stereo not given)	> 100	> 100	> 100	> 100	> 100	> 100	> 100	> 100	> 100	> 100	58.7	> 100	> 100	> 100	> 100	> 100	> 100	> 100	> 100	> 100
Cc1nc2ccc(-n3ncc(C(=O)c4cc5ccccc5[nH]4)c3N)cc2[nH]1	13.1	> 100	9.74	> 100	12.2	63.4	10.6	40.7	6.63	> 100	5.46	18.4	0.945	> 100	7.78	> 100	26.6	> 100	4.24	24.9
Cc1[nH]c(C(=O)Nc2cccc(OC3CCNCC3)c2)c(Cl)c1Cl	1.89	3.52	1.76	3.37	1.8	3.52	1.74	3.45	1.77	3.75	1.78	3.23	1.13	2.65	1.88	3.64	1.76	3.55	1.81	3.45
Cc1ccc(C2=NN(c3ccc(S(=O)(=O)NC(=O)NCc4ccccc4)cc3)C(c3ccc(N(C)C)cc3)C2)c(C)c1 (stereo not given)	4.6	16.6	4.31	13.6	3.57	23.4	4.16	22.4	4.37	45.1	2.32	5.62	2.44	> 100	3.94	23.7	4.64	> 100	2.5	6.8
c1cc[n+](Cc2c3ccccc3cc3c2ccc2ccccc23)cc1	6.45	20.4	1.67	5.93	5.05	19.7	6.08	20	1.13	5.48	1.77	3.89	1.35	5.36	6.16	21.9	2.34	5.48	1.92	3.93
COc1ccc2c(c1)OCC1c3cc(OC)c4ccccc4c3OC21 (stereo not given)	18.8	> 100	4.98	21.6	7.23	> 100	8.68	82.9	12.1	> 100	5.11	24.2	11.8	47.9	3.98	> 100	35.5	> 100	3.05	18.9
CC1(C)CC[C@]23CC[C@]4(C)[C@H](CC[C@@H]5[C@@]6(C)CCCNC(C)(C)[C@@H]6CC[C@]54C)[C@H]2[C@H]1OC3	1.74	3.23	1.79	3.48	1.77	3.31	1.66	3.2	2.04	5.31	1.69	3.06	1.5	2.94	1.75	3.49	1.92	3.87	1.79	3.21
CCc1ccc(Oc2c(-c3ccc(OCCc4cccc(C(F)(F)F)c4)cc3O)n[nH]c2C(F)(F)F)cc1	2.62	8.35	2.51	8.72	5.23	11.9	4.94	11.1	5.02	11	5.13	11	5.82	12.1	1.96	7.57	4.58	10.6	3.44	10.4
NS(=O)(=O)c1ccc(N=Nc2c(O)[nH]c3ccc(C(=O)NCCCn4ccnc4)cc23)cc1	> 25	> 25	> 25	> 25	> 25	> 25	> 25	> 25	> 25	> 25	> 25	> 25	> 25	> 25	> 25	> 25	> 25	> 25	> 25	> 25
COc1ccc(-c2cc(=O)c3c(OC)c4ccoc4c(/C=C/C=O)c3o2)cc1	4.53	18.9	13.6	> 100	2.24	7.56	4.22	85.3	4.38	87.2	1.69	3.51	3.13	20.6	2.3	10.4	3.63	14.2	1.77	5.11
